Test system: IL-2 secretion by Jurkat T cells
Assay: Inhibition of IL-2 secretion
Type: cell-based
Details: Homo sapiens; Jurkat T cells stimulated with PHA, 20 to 24 hours, IL-2 by ELISA
Description: The CRAC channel modulatory activity of the compounds were thus evaluated by measuring the secretion of IL-2 by antigen stimulated T-cells in vitro. Alternatively, such activity can also be evaluated by assay methods known to one skilled in the art.
Inhibition of IL-2 secretion: Jurkat T cells were seeded at a density of 0.5 to 1 million cells per well in RPMI medium. Test compounds from this invention were added to the cells at different concentrations. This was followed by the addition of PHA, a T cell mitogen after 10 minutes. The cells were then incubated for 20 to 24 hours in a CO2 incubator at 37° C. After incubation with the compounds, cells were centrifuged, the supernatant was collected and processed for ELISA to quantitate the amount of IL-2 secreted. A commercial ELISA kit (R&D Systems, Inc. Minneapolis, Minn., USA) was used to estimate the IL-2 concentrations. Amount of IL-2 secreted by cells stimulated with PHA was considered as a 100% maximal signal and the decrease in amount of IL-2 secreted by cells treated with the test compounds was expressed as percent inhibition of the maximal signal. The dose response data was analyzed using 4-parametric sigmoidal dose response (variable slope) curve-fit.

Q: Which IC50 does the source give for `Cc1cc2oc(=O)n(CC3CC3)c2cc1-c1ccc(NC(=O)c2c(F)cccc2F)cc1` [Example 29, N-(4-(3-(Cyclopropylmethyl)-6-methyl-2-oxo-2,3-dihydrobenzo[d]oxazol-5-yl)phenyl)-2,6-difluorobenzamide] here?
A: 25 to 50 nM

Q: Which IC50 does the source give for `Cc1cc2oc(=O)n(C(F)F)c2cc1-c1ccc(NC(=O)c2c(F)cccc2F)cc1` [Example 32, N-(4-(3-(Difluoromethyl)-6-methyl-2-oxo-2,3-dihydrobenzo[d]oxazol-5-yl)phenyl)-2,6-difluorobenzamide] here?
A: < 25 nM

Q: Which IC50 does the source give for `CCc1cc2c(cc1-c1ccc(C(=O)Nc3c(F)cncc3F)cc1)N(C)C(=O)CO2` [Example 135, N-(3,5-Difluoropyridin-4-yl)-4-(7-ethyl-4-methyl-3-oxo-3,4-dihydro-2H-benzo[b][1,4]oxazin-6-yl)benzamide] here?
A: 100 to 500 nM

Q: For `CCc1cc2oc(=O)n(C)c2cc1-c1ccc(NC(=O)c2c(F)cccc2F)nc1` [Example 82, N-(5-(6-Ethyl-3-methyl-2-oxo-2,3-dihydrobenzo[d]oxazol-5-yl)pyridin-2-yl)-2,6-difluoro benzamide], which IC50 is on record?
A: < 25 nM

Q: Which IC50 does the source give for `Cc1cc2oc(=O)n(C(F)F)c2cc1-c1cnc(NC(=O)c2c(F)cccc2F)cn1` [Example 78, N-(5-(3-(Difluoromethyl)-6-methyl-2-oxo-2,3-dihydrobenzo[d]oxazol-5-yl)pyrazin-2-yl)-2,6-difluorobenzamide] here?
A: < 25 nM

Q: With `Cc1cc2oc(=O)n(C(C)C)c2cc1-c1ccc(NC(=O)c2c(F)cccc2F)cc1` [Example 31, 2,6-Difluoro-N-(4-(3-isopropyl-6-methyl-2-oxo-2,3-dihydrobenzo[d]oxazol-5-yl)phenyl)benzamide] as the compound, how does the IC50 read?
A: < 25 nM

Q: `CCc1cc2c(cc1-c1ccc(NC(=O)c3c(F)cccc3F)cc1)N(C)C(=O)CO2` [Example 132, N-(4-(7-Ethyl-4-methyl-3-oxo-3,4-dihydro-2H-benzo[b][1,4]oxazin-6-yl)phenyl)-2,6-difluorobenzamide] was tested. Which IC50 did it give?
A: 25 to 50 nM

Q: How did the IC50 turn out when `CCc1cc2c(cc1-c1ccc(C(=O)Nc3c(F)cncc3F)cc1)oc(=O)n2C` [Example 90, N-(3,5-Difluoropyridin-4-yl)-4-(5-ethyl-3-methyl-2-oxo-2,3-dihydrobenzo [d]oxazol-6-yl) benzamide] was run?
A: 25 to 50 nM

Q: Which IC50 does the source give for `CCc1cc2c(cc1-c1cnc(NC(=O)c3c(F)cccc3F)cn1)oc(=O)n2C` [Example 70, N-(5-(5-Ethyl-3-methyl-2-oxo-2,3-dihydrobenzo [d]oxazol-6-yl)pyrazin-2-yl)-2,6-difluoro benzamide] here?
A: < 25 nM

Q: Which IC50 does the source give for `CCc1c(-c2ccc(NC(=O)c3c(F)cccc3F)cc2)cnc2c1oc(=O)n2C` [Example 5, N-(4-(7-Ethyl-3-methyl-2-oxo-2,3-dihydrooxazolo [4,5-b]pyridin-6-yl)phenyl)-2,6-difluorobenzamide] here?
A: < 25 nM

Q: `CCc1cc2c(cc1-c1cnc(NC(=O)c3c(F)cccc3F)cn1)OCC(=O)N2C` [Example 121, N-(5-(6-Ethyl-4-methyl-3-oxo-3,4-dihydro-2H-benzo[b][1,4]oxazin-7-yl)pyrazin-2-yl)-2,6-difluorobenzamide] was tested. Which IC50 did it give?
A: < 25 nM

Q: Which IC50 does the source give for `Cn1c(=O)oc2c(C3CC3)c(-c3cnc(NC(=O)c4c(F)cccc4F)cn3)ccc21` [Example 26, N-(5-(7-Cyclopropyl-3-methyl-2-oxo-2,3-dihydrobenzo[d]oxazol-6-yl)pyrazin-2-yl)-2,6-difluorobenzamide] here?
A: 100 to 500 nM

Q: For `Cn1c(=O)oc2c(C3CC3)c(-c3ccc(NCc4c(F)cccc4F)cc3)ccc21` [Example 100, 7-Cyclopropyl-6-(4-((2,6-difluorobenzyl)amino)phenyl)-3-methylbenzo [d]oxazol-2(3H)-one], which IC50 is on record?
A: 25 to 50 nM

Q: Which IC50 does the source give for `CCc1cc2c(cc1-c1ccc(NC(=O)c3c(F)cccc3F)nc1)OCC(=O)N2C` [Example 122, N-(5-(6-Ethyl-4-methyl-3-oxo-3,4-dihydro-2H-benzo[b][1,4]oxazin-7-yl)pyridin-2-yl)-2,6-difluorobenzamide] here?
A: < 25 nM

Q: Which IC50 does the source give for `Cc1cc2c(cc1-c1cnc(NC(=O)c3c(F)cccc3F)cn1)OCC(=O)N2C` [Example 126, N-(5-(4,6-Dimethyl-3-oxo-3,4-dihydro-2H-benzo[b][1,4]oxazin-7-yl)pyrazin-2-yl)-2,6-difluorobenzamide] here?
A: 100 to 500 nM

Q: `Cc1cc2oc(=O)n(C)c2cc1-c1ccc(NC(=O)c2c(F)cccc2Cl)cc1` [Example 46, 2-Chloro-N-(4-(3,6-dimethyl-2-oxo-2,3-dihydrobenzo[d]oxazol-5-yl)phenyl)-6-fluorobenzamide] was tested. Which IC50 did it give?
A: 25 to 50 nM

Q: `Cc1cc2c(cc1-c1ccc(NC(=O)c3c(F)cccc3F)cc1)oc(=O)n2C` [Example 56, N-(4-(3,5-Dimethyl-2-oxo-2,3-dihydrobenzo [d]oxazol-6-yl)phenyl)-2,6-difluorobenzamide] was tested. Which IC50 did it give?
A: < 25 nM

Q: Which IC50 does the source give for `CCc1nc2c(cc1-c1ccc(NC(=O)c3c(F)cccc3F)cc1)oc(=O)n2C` [Example 37, N-(4-(5-Ethyl-3-methyl-2-oxo-2,3-dihydrooxazolo [4,5-b]pyridin-6-yl)phenyl)-2,6-difluorobenzamide] here?
A: < 25 nM

Q: How did the IC50 turn out when `CN1C(=O)COc2c1ccc(-c1ccc(NC(=O)c3c(F)cccc3F)cc1)c2C1CC1` [Example 107, N-(4-(8-Cyclopropyl-4-methyl-3-oxo-3,4-dihydro-2H-benzo[b][1,4]oxazin-7-yl)phenyl)-2,6-difluorobenzamide] was run?
A: < 25 nM

Q: `Cn1c(=O)oc2cc(-c3ccc(NC(=O)c4c(F)cccc4F)cc3)c(C3CC3)cc21` [Example 42, N-(4-(5-Cyclopropyl-3-methyl-2-oxo-2,3-dihydrobenzo[d]oxazol-6-yl)phenyl)-2,6-difluorobenzamide] was tested. Which IC50 did it give?
A: < 25 nM

Q: With `Cc1nc2c(cc1-c1ccc(NC(=O)c3c(F)cccc3F)cc1)oc(=O)n2C` [Example 38, N-(4-(3,5-dimethyl-2-oxo-2,3-dihydrooxazolo [4,5-b]pyridin-6-yl)phenyl)-2,6-difluorobenzamide] as the compound, how does the IC50 read?
A: < 25 nM

Q: `Cc1cc2oc(=O)n(C)c2cc1-c1ccc(NC(=O)c2c(C)cccc2F)cc1` [Example 49, N-(4-(3,6-Dimethyl-2-oxo-2,3-dihydrobenzo [d]oxazol-5-yl)phenyl)-2-fluoro-6-methylbenzamide] was tested. Which IC50 did it give?
A: 25 to 50 nM

Q: `CN1C(=O)COc2c1ccc(-c1cnc(NC(=O)c3c(F)cccc3F)cn1)c2C1CC1` [Example 109, N-(5-(8-Cyclopropyl-4-methyl-3-oxo-3,4-dihydro-2H-benzo[b][1,4]oxazin-7-yl)pyrazin-2-yl)-2,6-difluorobenzamide] was tested. Which IC50 did it give?
A: 50 to 100 nM

Q: `Cc1cc2oc(=O)n(CCF)c2cc1-c1ccc(NC(=O)c2c(F)cccc2F)cc1` [Example 30, 2,6-Difluoro-N-(4-(3-(2-fluoroethyl)-6-methyl-2-oxo-2,3-dihydrobenzo[d]oxazol-5-yl)phenyl)benzamide] was tested. Which IC50 did it give?
A: < 25 nM

Q: With `CN1C(=O)COc2cc(-c3cnc(NC(=O)c4c(F)cccc4Cl)cn3)c(C3CC3)cc21` [Example 117, 2-Chloro-N-(5-(6-cyclopropyl-4-methyl-3-oxo-3,4-dihydro-2H-benzo[b][1,4]oxazin-7-yl)pyrazin-2-yl)-6-fluorobenzamide] as the compound, how does the IC50 read?
A: 25 to 50 nM

Q: Which IC50 does the source give for `CCc1cc2oc(=O)n(C)c2cc1-c1ccc(NC(=O)c2c(F)cccc2F)cc1` [Example 85, N-(4-(6-Ethyl-3-methyl-2-oxo-2,3-dihydrobenzo [d]oxazol-5-yl)phenyl)-2,6-difluorobenzamide] here?
A: < 25 nM

Q: How did the IC50 turn out when `Cn1c(=O)oc2cc(C3CC3)c(-c3ccc(C(=O)Nc4c(F)cncc4F)cc3)cc21` [Example 93, 4-(6-Cyclopropyl-3-methyl-2-oxo-2,3-dihydrobenzo[d]oxazol-5-yl)-N-(3,5-difluoropyridin-4-yl)benzamide] was run?
A: < 25 nM

Q: Which IC50 does the source give for `Cn1c(=O)oc2cc(-c3ccc(C(=O)Nc4c(F)cccc4F)s3)c(C3CC3)cc21` [Example 74, 5-(5-Cyclopropyl-3-methyl-2-oxo-2,3-dihydrobenzo [d]oxazol-6-yl)-N-(2,6-difluorophenyl) thiophene-2-carboxamide] here?
A: 50 to 100 nM

Q: For `Cc1cc2c(cc1-c1ccc(C(=O)Nc3c(F)cccc3F)s1)oc(=O)n2C` [Example 75, N-(2,6-Difluorophenyl)-5-(3,5-dimethyl-2-oxo-2,3-dihydrobenzo[d]oxazol-6-yl)thiophene-2-carboxamide], which IC50 is on record?
A: 25 to 50 nM

Q: Which IC50 does the source give for `Cn1c(=O)oc2cc(C3CC3)c(-c3ccc(NC(=O)c4c(F)cccc4F)nc3)cc21` [Example 83, N-(5-(6-Cyclopropyl-3-methyl-2-oxo-2,3-dihydrobenzo [d]oxazol-5-yl)pyridin-2-yl)-2,6-difluorobenzamide] here?
A: 25 to 50 nM

Q: `Cn1c(=O)oc2cc(-c3cnc(NC(=O)c4c(F)cccc4F)cn3)c(C3CC3)cc21` [Example 72, N-(5-(5-Cyclopropyl-3-methyl-2-oxo-2,3-dihydrobenzo [d]oxazol-6-yl)pyrazin-2-yl)-2,6-difluorobenzamide] was tested. Which IC50 did it give?
A: 50 to 100 nM

Q: How did the IC50 turn out when `Cc1cc2oc(=O)n(C)c2cc1-c1ccc(C(=O)Nc2c(F)cccc2F)s1` [Example 140, N-(2,6-Difluorophenyl)-5-(3,6-dimethyl-2-oxo-2,3-dihydrobenzo[d]oxazol-5-yl)thiophene-2-carboxamide] was run?
A: < 25 nM

Q: For `Cn1c(=O)oc2cc(-c3cnc(NC(=O)c4c(F)cccc4F)cn3)c(C3CC3)nc21` [Example 86, N-(5-(5-Cyclopropyl-3-methyl-2-oxo-2,3-dihydrooxazolo[4,5-b]pyridin-6-yl)pyrazin-2-yl)-2,6-difluorobenzamide], which IC50 is on record?
A: 25 to 50 nM

Q: Which IC50 does the source give for `CN1C(=O)COc2cc(-c3ccc(C(=O)Nc4c(F)cncc4F)cc3)c(C3CC3)cc21` [Example 119, 4-(6-Cyclopropyl-4-methyl-3-oxo-3,4-dihydro-2H-benzo[b][1,4]oxazin-7-yl)-N-(3,5-difluoropyridin-4-yl)benzamide] here?
A: 100 to 500 nM
